This is an account of results in PubChem BioAssay (NCI).

Common to all, as to experiment: NCI anticancer screen, dose series, 48 h
Assay [1] relates to ACHN renal.
Assay [2] relates to CCRF-CEM leukemia.
The subject of assay [3] is HCT-15 colon.
Assay [4] concerns HOP-92 NSCLC.
Assay [5] deals with HS 578T breast.
In assay [6] the test system is IGROV1 ovarian.
Assay [7] concerns KM12 colon.
Assay [8] relates to LOX IMVI melanoma.
Assay [9] relates to MALME-3M melanoma.
The test system of assay [10] is NCI-H522 lung.
In assay [11] the test system is OVCAR-3 ovarian.
Assay [12] relates to SK-MEL-28 melanoma.
For assay [13], the system named is SK-MEL-5 melanoma.
The test system of assay [14] is SK-OV-3 ovarian.
Assay [15] relates to SW-620 colon.
The test system of assay [16] is TK-10 renal.
The test system of assay [17] is UO-31 renal.
The subject of assay [18] is OVCAR-8 ovarian.
In assay [19] the test system is SK-MEL-2 melanoma.
In assay [20] the test system is UACC-257 melanoma.

SMILES strings stand for the structures.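 Results reflect a 48-hour exposure of cells in 96-well plates to compound at five concentrations. The concentration for full growth arrest is given as TGI.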 A value given as a limit tells only on which side of the number the result lay.

As for `N/C(CCSCCSCC/C(N)=N\O)=N\O`, the TGI in [1], in [2], in assay [3], in assay [4], in assay [5] and in assay [6] was more than 100 µM each time. Besides, the TGI in [7], in assay [8], in assay [9], in assay [10], in assay [11] and in [12] was more than 100 µM in each case. Besides, the TGI in assay [13], in assay [14], in assay [15], in assay [16] and in assay [17] was more than 100 µM throughout.
As for `Cc1nc2ccc(S(=O)(=O)O)cc2c(=O)n1-c1ccc(C(=O)NN2C(=O)C(Cl)C2c2cccs2)cc1` (configuration not stated), the TGI in [1], in assay [2], in assay [3], in [4], in assay [5] and in assay [7] was more than 100 µM each time. Further, the TGI was more than 100 µM in assay [8]; more than 100 µM in assay [9]; more than 100 µM in assay [10]; more than 100 µM in [11]; more than 100 µM in [18]; 54.1 µM in [19]. The TGI in assay [12], in assay [13], in assay [14], in [15], in assay [16] and in assay [20] was more than 100 µM in each case. In addition, the TGI in assay [17] was more than 100 µM.
As to `COc1cc(Nc2cc(Cl)cc(Cl)c2)nc(N)n1`, the TGI in [1] came out at 37.4 µM; in assay [2], 43.3 µM; in assay [3], 36.5 µM; in assay [4] it was 32.1 µM; in assay [5], 57 µM; in assay [6] it was 44.2 µM. For the same compound, the TGI in assay [7] was 37 µM; in assay [8], 32.2 µM; in assay [9] it was 40.4 µM; in [10], 35.9 µM; in assay [11], 41.1 µM; in [18], 39.6 µM. Moreover, the TGI in assay [19] is 32.1 µM; in assay [13], 29.7 µM; in assay [14], 64.5 µM; in assay [15], 59.8 µM; in assay [16], 53.9 µM; in assay [20] it was 38.8 µM. Moreover, the TGI in assay [17] worked out at 31.2 µM.
Consider `CC1C(OS(=O)(=O)c2ccc3[nH]c(=S)sc3c2)CC2C3(C)CCC2(C(C)C(=O)O)C(O)C13` (configuration not stated), for which the TGI in assay [1] is 31.8 µM; in [2], 65.5 µM; in assay [3] it was 27.1 µM; in [4], more than 100 µM; in [5], more than 100 µM; in assay [6] it was 35.8 µM. Also, the TGI was 52.4 µM in [7]; 83.8 µM in assay [9]; 17.2 µM in assay [10]; 42.5 µM in assay [11]; 54.6 µM in assay [18]; 81.7 µM in assay [19]. Besides, the TGI in [12] is more than 100 µM; in [13] it was 34.5 µM; in assay [14], more than 100 µM; in assay [16], more than 100 µM; in assay [20], more than 100 µM; in [17], 39.8 µM.
On to `CN(/N=C/c1ccccn1)C1=NCCN1`, for which the TGI in [1], in assay [2], in assay [3], in assay [4], in [5] and in assay [6] was more than 100 µM throughout. Further, the TGI in assay [7], in assay [8], in [9], in assay [10], in assay [11] and in assay [18] was more than 100 µM each time. Moreover, the TGI in [19], in assay [12], in assay [13], in assay [14], in assay [15] and in assay [20] was more than 100 µM each time. Moreover, the TGI in assay [17] was more than 100 µM.
As to `CN(Cc1cccc2ccsc12)/N=C\c1ccc(Cl)cc1`, the TGI in [1], in [2], in [3], in assay [4], in assay [5] and in assay [6] was more than 100 µM each time. Besides, the TGI in assay [7] is more than 100 µM; in assay [8] it was more than 100 µM; in assay [9], more than 100 µM; in assay [10], more than 100 µM; in assay [11], 48.3 µM; in [18] it was more than 100 µM. Further, the TGI was more than 100 µM in assay [12]; 41.6 µM in assay [13]; more than 100 µM in assay [14]; more than 100 µM in assay [15]; more than 100 µM in assay [16]; 95.4 µM in assay [20]. This compound registered a TGI in assay [17] of more than 100 µM.
Regarding `CCc1nc(N)nc(N)c1-c1ccc(N2CCOCC2)c(N=[N+]=[N-])c1`, the TGI in [1], in [2], in assay [3], in assay [4], in assay [5] and in assay [6] was more than 100 µM throughout. In addition, the TGI in [7] is more than 100 µM; in assay [8], more than 100 µM; in assay [10], 37.9 µM; in [11] it was more than 100 µM; in assay [18] it was more than 100 µM; in assay [19], more than 100 µM. For the same compound, the TGI in assay [12], in assay [13], in assay [14], in assay [15], in assay [16] and in assay [20] was more than 100 µM in each case. Besides, the TGI in assay [17] was more than 100 µM.
`Cc1cccc(C)c1NC(=O)C(=O)CC(=O)c1sc(Nc2c(C)cccc2C)nc1C`: the TGI in [1], in assay [2], in assay [3], in assay [4], in [5] and in assay [6] was more than 100 µM in each case. The TGI in assay [7], in assay [8], in assay [10], in assay [11], in [18] and in [19] was more than 100 µM in each case. Besides, the TGI in [14], in assay [15], in assay [16], in assay [20] and in assay [17] was more than 100 µM throughout.
